Columns and labels:
Assay in all cases: relative viability (nuclei count vs DMSO), 5 days (fraction); higher = more cells survive
[1] = test system: 201T
How it was run: (§1)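 Relative viability equals treated-well nuclei counts divided by vehicle-well nuclei counts. Counts came from 4× images of lung cancer cell lines grown in 1536-well plates for 5 days after pin-tool dosing on the day after seeding. Dosing used one drug alone or a fixed anchor-drug dose plus five library-drug doses (not always all listed) in √10 steps, and values are medians of duplicate plates.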

[2] = test system: A-427
How it was run: as §1

[3] = test system: ABC-1
How it was run: as §1

[4] = test system: BEN
How it was run: as §1

[5] = test system: CAL-12T
How it was run: as §1

[6] = test system: H3255
How it was run: as §1

[7] = test system: LC-2-ad
How it was run: as §1

[8] = test system: LCLC-97TM1
How it was run: as §1

[9] = test system: NCI-H1650
How it was run: as §1

[10] = test system: NCI-H1651
How it was run: as §1

[11] = test system: NCI-H1915
How it was run: as §1

[12] = test system: NCI-H1944
How it was run: as §1

[13] = test system: NCI-H2023
How it was run: as §1

[14] = test system: NCI-H2087
How it was run: as §1

[15] = test system: NCI-H441
How it was run: as §1

[16] = test system: NCI-H460
How it was run: as §1

[17] = test system: NCI-H520
How it was run: as §1

[18] = test system: NCI-H596
How it was run: as §1

[19] = test system: NCI-H650
How it was run: as §1

[20] = test system: NCI-H661
How it was run: as §1

[21] = test system: NCI-H727
How it was run: as §1

[22] = test system: PC-3 [JPC-3]
How it was run: as §1

SMILES: Nc1ccn([C@@H]2O[C@H](CO)[C@@H](O)[C@@H]2O)c(=O)n1 [Cytarabine] + Cc1cc(Nc2cc(N3CCN(C)CC3)nc(Sc3ccc(NC(=O)C4CC4)cc3)n2)n[nH]1 [Tozasertib] (partner 0.1 µM)
- relative viability ([1]; first compound 0.005 µM): 0.886
- relative viability ([1]; first compound 0.01581 µM): 0.944
- relative viability ([1]; first compound 0.05 µM): 0.911
- relative viability ([1]; first compound 0.1581 µM): 0.837
- relative viability ([1]; first compound 0.5 µM): 0.706
- relative viability ([2]; first compound 0.005 µM): 0.232
- relative viability ([2]; first compound 0.01581 µM): 0.212
- relative viability ([2]; first compound 0.05 µM): 0.163
- relative viability ([2]; first compound 0.1581 µM): 0.161
- relative viability ([2]; first compound 0.5 µM): 0.149
- relative viability ([3]; first compound 0.005 µM): 0.209
- relative viability ([3]; first compound 0.01581 µM): 0.176
- relative viability ([3]; first compound 0.05 µM): 0.174
- relative viability ([3]; first compound 0.1581 µM): 0.154
- relative viability ([3]; first compound 0.5 µM): 0.183
- relative viability ([4]; first compound 0.005 µM): 0.427
- relative viability ([4]; first compound 0.01581 µM): 0.519
- relative viability ([4]; first compound 0.05 µM): 0.569
- relative viability ([4]; first compound 0.1581 µM): 0.63
- relative viability ([4]; first compound 0.5 µM): 0.563
- relative viability ([5]; first compound 0.005 µM): 0.249
- relative viability ([5]; first compound 0.01581 µM): 0.323
- relative viability ([5]; first compound 0.05 µM): 0.27
- relative viability ([5]; first compound 0.1581 µM): 0.303
- relative viability ([5]; first compound 0.5 µM): 0.2
- relative viability ([6]; first compound 0.005 µM): 0.586
- relative viability ([6]; first compound 0.01581 µM): 0.644
- relative viability ([6]; first compound 0.05 µM): 0.786
- relative viability ([6]; first compound 0.1581 µM): 0.604
- relative viability ([6]; first compound 0.5 µM): 0.488
- relative viability ([7]; first compound 0.005 µM): 0.415
- relative viability ([7]; first compound 0.01581 µM): 0.452
- relative viability ([7]; first compound 0.05 µM): 0.418
- relative viability ([7]; first compound 0.1581 µM): 0.39
- relative viability ([7]; first compound 0.5 µM): 0.301
- relative viability ([8]; first compound 0.005 µM): 0.248
- relative viability ([8]; first compound 0.01581 µM): 0.247
- relative viability ([8]; first compound 0.05 µM): 0.235
- relative viability ([8]; first compound 0.1581 µM): 0.207
- relative viability ([8]; first compound 0.5 µM): 0.174
- relative viability ([9]; first compound 0.005 µM): 0.294
- relative viability ([9]; first compound 0.01581 µM): 0.33
- relative viability ([9]; first compound 0.05 µM): 0.303
- relative viability ([9]; first compound 0.1581 µM): 0.26
- relative viability ([9]; first compound 0.5 µM): 0.213
- relative viability ([10]; first compound 0.005 µM): 0.688
- relative viability ([10]; first compound 0.01581 µM): 0.707
- relative viability ([10]; first compound 0.05 µM): 0.746
- relative viability ([10]; first compound 0.1581 µM): 0.577
- relative viability ([10]; first compound 0.5 µM): 0.206
- relative viability ([11]; first compound 0.005 µM): 0.351
- relative viability ([11]; first compound 0.01581 µM): 0.472
- relative viability ([11]; first compound 0.05 µM): 0.401
- relative viability ([11]; first compound 0.1581 µM): 0.319
- relative viability ([11]; first compound 0.5 µM): 0.32
- relative viability ([12]; first compound 0.005 µM): 0.211
- relative viability ([12]; first compound 0.01581 µM): 0.195
- relative viability ([12]; first compound 0.05 µM): 0.184
- relative viability ([12]; first compound 0.1581 µM): 0.149
- relative viability ([12]; first compound 0.5 µM): 0.114
- relative viability ([13]; first compound 0.005 µM): 0.238
- relative viability ([13]; first compound 0.01581 µM): 0.223
- relative viability ([13]; first compound 0.05 µM): 0.176
- relative viability ([13]; first compound 0.1581 µM): 0.101
- relative viability ([13]; first compound 0.5 µM): 0.0955
- relative viability ([14]; first compound 0.005 µM): 0.254
- relative viability ([14]; first compound 0.01581 µM): 0.25
- relative viability ([14]; first compound 0.05 µM): 0.234
- relative viability ([14]; first compound 0.1581 µM): 0.195
- relative viability ([14]; first compound 0.5 µM): 0.174
- relative viability ([15]; first compound 0.005 µM): 0.557
- relative viability ([15]; first compound 0.01581 µM): 0.637
- relative viability ([15]; first compound 0.05 µM): 0.597
- relative viability ([15]; first compound 0.1581 µM): 0.389
- relative viability ([15]; first compound 0.5 µM): 0.323
- relative viability ([16]; first compound 0.005 µM): 0.438
- relative viability ([16]; first compound 0.01581 µM): 0.362
- relative viability ([16]; first compound 0.05 µM): 0.196
- relative viability ([16]; first compound 0.1581 µM): 0.0434
- relative viability ([16]; first compound 0.5 µM): 0.0361
- relative viability ([17]; first compound 0.005 µM): 0.416
- relative viability ([17]; first compound 0.01581 µM): 0.463
- relative viability ([17]; first compound 0.05 µM): 0.478
- relative viability ([17]; first compound 0.1581 µM): 0.415
- relative viability ([17]; first compound 0.5 µM): 0.494
- relative viability ([18]; first compound 0.005 µM): 1.03
- relative viability ([18]; first compound 0.01581 µM): 0.945
- relative viability ([18]; first compound 0.05 µM): 0.712
- relative viability ([18]; first compound 0.1581 µM): 0.589
- relative viability ([18]; first compound 0.5 µM): 0.469
- relative viability ([19]; first compound 0.005 µM): 0.595
- relative viability ([19]; first compound 0.01581 µM): 0.513
- relative viability ([19]; first compound 0.05 µM): 0.34
- relative viability ([19]; first compound 0.1581 µM): 0.249
- relative viability ([19]; first compound 0.5 µM): 0.176
- relative viability ([20]; first compound 0.005 µM): 0.371
- relative viability ([20]; first compound 0.01581 µM): 0.368
- relative viability ([20]; first compound 0.05 µM): 0.351
- relative viability ([20]; first compound 0.1581 µM): 0.349
- relative viability ([20]; first compound 0.5 µM): 0.364
- relative viability ([21]; first compound 0.005 µM): 0.574
- relative viability ([21]; first compound 0.01581 µM): 0.386
- relative viability ([21]; first compound 0.05 µM): 0.476
- relative viability ([21]; first compound 0.1581 µM): 0.4
- relative viability ([21]; first compound 0.5 µM): 0.463
- relative viability ([22]; first compound 0.005 µM): 0.726
- relative viability ([22]; first compound 0.01581 µM): 0.826
- relative viability ([22]; first compound 0.05 µM): 0.966
- relative viability ([22]; first compound 0.1581 µM): 0.704
- relative viability ([22]; first compound 0.5 µM): 0.665

From the supplement of paper PMC10307832
